In the supplement of paper PMC10883282:

How the values were obtained:
Assay in all cases: relative viability vs DMSO control (72 h) (fraction); higher = more viable cells
SK-LMS-1 = system: SK-LMS-1
How it was run: (§1)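 After seeding at densities set for 80–90% confluence in 384-well plates, sarcoma cell lines waited 24 h before 2.5 µl of serially diluted compound was added. Source plates held 10 mM down to 0.0002 mM. Plates were incubated 72 h at 37 °C with 5% CO2, with 0.1% DMSO vehicle and a 5 µM positive control, and relative viability was taken from ATPLite as percent growth averaged over up to triplicate wells, with 1 set as full and 0 as none.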

VA-ES-BJ = system: VA-ES-BJ
How it was run: as §1

KHOS-240S = system: KHOS-240S
How it was run: as §1

A204 = system: A204
How it was run: as §1

MES-SA = system: MES-SA
How it was run: as §1

SW1353 = system: SW1353
How it was run: as §1

SK-ES-1 = system: SK-ES-1
How it was run: as §1

RD = system: RD
How it was run: as §1

SW872 = system: SW872
How it was run: as §1

G401 = system: G401
How it was run: as §1

HS729 = system: HS729
How it was run: as §1

SW982 = system: SW982
How it was run: as §1

CN(C)C/C=C/C(=O)Nc1cc2c(Nc3ccc(F)c(Cl)c3)ncnc2cc1O[C@H]1CCOC1 [Afatinib]
Conditions	relative viability
A204, 0.00017 µM	0.993
A204, 0.00051 µM	1
A204, 0.00152 µM	1.03
A204, 0.00457 µM	0.976
A204, 0.01372 µM	1.01
A204, 0.04115 µM	0.945
A204, 0.1235 µM	0.859
A204, 0.3704 µM	0.595
A204, 1.111 µM	0.34
A204, 3.333 µM	0.175
A204, 10 µM	0.00583
G401, 0.00017 µM	1.02
G401, 0.00051 µM	1.03
G401, 0.00152 µM	1.015
G401, 0.00457 µM	1.03
G401, 0.01372 µM	1.03
G401, 0.04115 µM	0.9814
G401, 0.1235 µM	0.97
G401, 0.3704 µM	0.846
G401, 1.111 µM	0.61
G401, 3.333 µM	0.472
G401, 10 µM	0.212
HS729, 0.00017 µM	1.07
HS729, 0.00051 µM	0.975
HS729, 0.00152 µM	0.989
HS729, 0.00457 µM	0.953
HS729, 0.01372 µM	0.958
HS729, 0.04115 µM	0.968
HS729, 0.1235 µM	0.937
HS729, 0.3704 µM	0.802
HS729, 1.111 µM	0.667
HS729, 3.333 µM	0.529
HS729, 10 µM	0.007367
KHOS-240S, 0.00017 µM	1.06
KHOS-240S, 0.00051 µM	1.06
KHOS-240S, 0.00152 µM	1.07
KHOS-240S, 0.00457 µM	1.08
KHOS-240S, 0.01372 µM	1.06
KHOS-240S, 0.04115 µM	1.04
KHOS-240S, 0.1235 µM	1.03
KHOS-240S, 0.3704 µM	0.991
KHOS-240S, 1.111 µM	0.715
KHOS-240S, 3.333 µM	0.402
KHOS-240S, 10 µM	0.0697
MES-SA, 0.00017 µM	0.967
MES-SA, 0.00051 µM	0.955
MES-SA, 0.00152 µM	0.948
MES-SA, 0.00457 µM	0.947
MES-SA, 0.01372 µM	0.934
MES-SA, 0.04115 µM	0.887
MES-SA, 0.1235 µM	0.885
MES-SA, 0.3704 µM	0.725
MES-SA, 1.111 µM	0.452
MES-SA, 3.333 µM	0.283
MES-SA, 10 µM	0.24
RD, 0.00017 µM	1.08
RD, 0.00051 µM	1.13
RD, 0.00152 µM	1.15
RD, 0.00457 µM	1.11
RD, 0.01372 µM	1.11
RD, 0.04115 µM	1.07
RD, 0.1235 µM	1.09
RD, 0.3704 µM	1.03
RD, 1.111 µM	0.569
RD, 3.333 µM	0.0531
RD, 10 µM	0.022
SK-ES-1, 0.00017 µM	1.01
SK-ES-1, 0.00051 µM	1.05
SK-ES-1, 0.00152 µM	1.04
SK-ES-1, 0.00457 µM	0.988
SK-ES-1, 0.01372 µM	1.03
SK-ES-1, 0.04115 µM	0.959
SK-ES-1, 0.1235 µM	0.858
SK-ES-1, 0.3704 µM	0.676
SK-ES-1, 1.111 µM	0.306
SK-ES-1, 3.333 µM	0.117
SK-ES-1, 10 µM	0.113
SK-LMS-1, 0.00017 µM	1.1
SK-LMS-1, 0.00051 µM	1.1
SK-LMS-1, 0.00152 µM	1.11
SK-LMS-1, 0.00457 µM	1.08
SK-LMS-1, 0.01372 µM	1.13
SK-LMS-1, 0.04115 µM	1.04
SK-LMS-1, 0.1235 µM	1.01
SK-LMS-1, 0.3704 µM	0.879
SK-LMS-1, 1.111 µM	0.724
SK-LMS-1, 3.333 µM	0.462
SK-LMS-1, 10 µM	0.135
SW872, 0.00017 µM	1.07
SW872, 0.00051 µM	1.14
SW872, 0.00152 µM	1.09
SW872, 0.00457 µM	1.11
SW872, 0.01372 µM	1.07
SW872, 0.04115 µM	1.06
SW872, 0.1235 µM	1.02
SW872, 0.3704 µM	0.896
SW872, 1.111 µM	0.595
SW872, 3.333 µM	0.304
SW872, 10 µM	0.257
SW982, 0.00017 µM	1.017
SW982, 0.00051 µM	1.03
SW982, 0.00152 µM	1.03
SW982, 0.00457 µM	1.06
SW982, 0.01372 µM	1.05
SW982, 0.04115 µM	1.02
SW982, 0.1235 µM	0.914
SW982, 0.3704 µM	0.659
SW982, 1.111 µM	0.286
SW982, 3.333 µM	0.183
SW982, 10 µM	0.219
SW1353, 0.00017 µM	1.03
SW1353, 0.00051 µM	1.01
SW1353, 0.00152 µM	0.965
SW1353, 0.00457 µM	0.923
SW1353, 0.01372 µM	0.822
SW1353, 0.04115 µM	0.771
SW1353, 0.1235 µM	0.749
SW1353, 0.3704 µM	0.653
SW1353, 1.111 µM	0.485
SW1353, 3.333 µM	0.3677
SW1353, 10 µM	0.22
VA-ES-BJ, 0.00017 µM	1.09
VA-ES-BJ, 0.00051 µM	1.1
VA-ES-BJ, 0.00152 µM	1.06
VA-ES-BJ, 0.00457 µM	1.03
VA-ES-BJ, 0.01372 µM	0.983
VA-ES-BJ, 0.04115 µM	0.974
VA-ES-BJ, 0.1235 µM	0.968
VA-ES-BJ, 0.3704 µM	0.911
VA-ES-BJ, 1.111 µM	0.573
VA-ES-BJ, 3.333 µM	0.351
VA-ES-BJ, 10 µM	0.207
